# According to patent US20220213170A1, “PEPTIDES” (Hubro Therapeutics AS, priority 2019, published 2022):
# Where no end group is shown, it is not given here.
# How the values were obtained:
# [1] = tested on: tumour infiltrating Th cells in MSI+ tumours; conditions: cited from earlier work
# [2] = tested on: T-cells from PMBCs from four healthy donors; assay: T-cell proliferation (stimulation index) after induction of PBMC with fsp2, fsp8 and fsp9 mixture; type: cell-based, human; conditions: for Immunogenicity (T-cell proliferation, stimulation index): first round of stimulation, T-cells induced with fsp2+fsp8+fsp9, FIG. 13
# Experimental: The same protocol as that set out in Example 7 was used to test the immunogenicity of fsp6 and fsp7 (SEQ ID NO: 26 and SEQ ID NO: 27, respectively), except for the peptide mixture used to induce T-cells from PMBCs from fresh buffy coats from four healthy donors. The peptide mixture used in this Example to induce T-cells from PMBCs was made up of fsp2 (SEQ ID NO: 5; 10 μM), fsp8 (SEQ ID NO: 31; 10 μM) and fsp9 (SEQ ID NO: 32; 10 μM). Fsp8 (SEQ ID NO: 31; […]) is a peptide of ASTE1 having a −1a frameshift mutation, and fsp9 (SEQ ID NO: 32; […]) is a peptide of TAF1β having a −1a frameshift mutation.
# At day 14 after induction, a T-cell proliferation assay was carried out as in Example 7, using fsp2 (SEQ ID NO: 5), fsp6 (SEQ ID NO: 26) and fsp7 (SEQ ID NO: 27) as test peptides. As fsp8 and fsp9 have very different amino acid sequences from fsp2, only fsp2 would be able to induce T-cells which are capable of recognising and being stimulated by fsp2, fsp6 and fsp7. […] Two further rounds of T-cell stimulation were also carried out, with a T-cell proliferation assay being carried out 14 days after each stimulation.
# The T-cell proliferation results after the first round of in vitro stimulation are presented as stimulation index (SI) in FIG. 13. […] It is also expected, in view of the results shown in FIGS. 11 and 12, that a peptide having the sequence of fsp6 (SEQ ID NO: 26) but having an amino acid substitution corresponding to that in fsp2, and particularly a C-to-G amino acid substitution as in fsp2, is also immunogenic and is useful as a vaccine or treatment against cancer. […] Thus, it is expected that fsp6a (SEQ ID NO: 28), which is identical to fsp6 (SEQ ID NO: 26) except for the same C-to-G amino acid substitution as fsp2 (SEQ ID NO: 5), will also be immunogenic.
# [3] = tested on: CTLs (HLA-A2.1 restricted); conditions: cited from earlier work
# [4] = tested on: colorectal cancer cell line HCT116; conditions: cell line carries the corresponding frameshift mutation; cited from earlier work
# CTL = conditions: cited from earlier work
# T-cells = conditions: after four rounds of stimulation of the T-cells; cited from earlier work
# [5] = tested on: T cells (PBMC) from healthy donors; assay: T-cell proliferation (3H-thymidine uptake, stimulation index) after in vitro stimulation of PBMC with fsp2+fsp4 cocktail; type: cell-based, human; conditions: for Immune response of Donor 3: Donor 3, stimulation with fsp2 and fsp4 mixture, FIG. 11; for Immunogenicity relative to fsp3 and fsp4: FIGS. 10 and 11, peptides with wild-type TGFβR2 amino acids vs without; for Immunogenicity (T cell proliferation, stimulation index): first and second round of stimulation with fsp2+fsp4, 10 μM test peptide, FIGS. 10-12
# Experimental: Fresh buffy coats from four healthy donors were obtained from a blood bank.
# Peripheral blood mononuclear cells (PBMC) isolated from fresh buffy coats from four healthy donors were counted and suspended in DC medium to 15*10^6 cells/ml, and subsequently diluted with DC-medium to 4*10^6 cells/ml (Table 6).
# Four 24-well plates were used for each donor, with 4*10^6 cells per well (each well has a volume of 1 ml).
# Peptide cocktail: Solution of peptides fsp2+fsp4, containing 10 μM of each peptide. 40 μl peptide solution was added to each well.
# The plates were incubated in a cell incubator for 14 days (37° C., 5% CO2). IL-2 and IL-7 were added on day 3. The cells were inspected daily.
# Test peptides: fsp2+fsp4 (SEQ ID NOs: 5 and 7), fsp1 (SEQ ID NO: 4), fsp2 (SEQ ID NO: 5), fsp3 (SEQ ID NO: 6), fsp4 (SEQ ID NO: 7), fsp5 (SEQ ID NO: 3).
# Cells and reagents were added to plate wells (in triplicate) as described in Tables 7 and 8 below. The total volume added to each well was 0.20 ml. • T cells (PBMC): 50 000 cells/well (0.25*10^6 cells/ml) • APC: Irradiated (30Gy, 8 minutes) autologous feeder cells: 50 000 cells/well • Peptide (fspx): […] peptide/well (each peptide), concentration: 10 μM peptide. (fsp was dissolved in DMSO before dilution to correct concentration)
# The plates were incubated in a cell incubator for 48 hours (37° C., 5% CO2).
# After incubation for 48 hours, 20 μl 3H-tThymidine solution (5 μCi/ml) was added to each well and the plates were incubated for approximately 17 hours (37° C., 5% CO2).
# After 17 hours the cells were harvested (Unifilters) and dried on the filters at 45° C. until completely dry. After covering the bottom of the Unifilters with adhesive covers (delivered with the Unifilters) 25 μl micro scintillation liquid was added to each well, the plate was covered with TopSeal and 3H-Thymidine uptake was measured as counts per minute (CPM) using a microplate scintillation counter.
# The T cell proliferation results after the first round of in vitro stimulation with the cocktail of fsp2 and fsp4 peptides are presented as stimulation index (SI) in FIG. 10. SI=mean CPM (triplicates) of (T cells+APC+test peptide(s)) divided by mean CPM (triplicates) of (T cells+APC). SI≥2 is a clear signal of immunogenicity.
# PBMCs harvested after the first in vitro stimulation were re-stimulated in vitro according to the protocol set out above, with 2×10^6 cells per well. T-cell proliferation was tested according to the protocol set out above.
# The T cell proliferation results after a second round of in vitro stimulation with the cocktail of fsp2 and fsp4 peptides are presented as stimulation index (SI) in FIG. 11.
# Peptide solubility = type: physicochemical
# Experimental: The peptide was difficult to dissolve and it was attempted to dissolve the crude fsp5 (SEQ ID NO: 3) (˜150 mg) in approximately 4 ml 50% MeCN in water under gentle heating.
# Another batch of fsp5 (SEQ ID NO: 3) was prepared, dissolved in neat DMSO under gentle heating and purified by preparative HPLC. Again, only very small amounts of purified fsp5 (SEQ ID NO: 3) were obtained.
# [6] = Peptide stability (purity by UPLC after lyophilisation or storage); type: physicochemical; conditions: purified peptide, dropped from around 90% before lyophilisation
# Experimental: A batch of fsp5 (SEQ ID NO: 3) was prepared by solid phase peptide synthesis (SPPS) by using FMOC chemistry and Prelude synthesizer (Gyros Protein Technologies Inc., USA). The crude peptide was analysed by UPLC and MS. […] UPLC system: Column; Acquity UPLC BEH C18 […], […], detection; PDA 210-500 nm, solvent A); 0.1% TFA in water, solvent B; 0.1% TFA in MeCN, gradient: 20-70% B (2-10 minutes, linear).
# When the purity of the small amount of purified fsp5 (SEQ ID NO: 3) was reassessed by UPLC after lyophilisation, the purity had dropped from around 90% to below 50% as shown in FIG. 4.
# [7] = patients recognising the peptide
substance,measurement,setting,value
"SPKCIMKEKKSLVRLSSCVPVA [P540, prior art peptide of mutTGFβR2]","Immunogenicity (Saeterdal, PNAS)",[1],immunogenic
same,Induction of T-cell responses in patients,[1],able to induce T-cell responses in some patients
fsp7: Peptide of SEQ ID NO: 27; same amino acid sequence as fsp2 but truncated at the N-terminus (VRLSSCVPVALMSA; listed as Homo sapiens),"Immunogenicity (T-cell proliferation, stimulation index)",[2],too truncated at the N-terminus compared to fsp2 (SEQ ID NO 5) to be immunogenic
"RLSSCVPVA [p573, prior art peptide of mutTGFβR2]",Activation of specific CTLs in vitro,[3]; HLA-A2.1 restricted,capable of activating specific CTLs
same,Immunogenicity (FIG. 1 of Linnebacher et al.),[3],immunogenic
same,Lysis of HCT116,[4],able to lyse
same,Generation of CTL line and clones,CTL,able to generate a CTL line and several CTL clones
same,"Immunogenicity (Saeterdal, Cancer Immunol Immunother)",CTL,immunogenic
same,Immunogenicity (FIG. 14 of EP1078000),T-cells,not immunogenic
"PKCIMKEKKKSLVRLSSCV [p541, prior art peptide of mutTGFβR2]","Immunogenicity (Saeterdal, PNAS)",[1],immunogenic
same,Induction of T-cell responses in patients,[1],able to induce T-cell responses in some patients
"SLVRLSSCVPVALMSAMTTSSSQ [p538, prior art peptide of mutTGFβR2]","Immunogenicity (Saeterdal, PNAS)",[1],highly immunogenic
same,Recognition by patients having spontaneous MSI+ colon cancer,[1]; [7],two of three
same,Recognition by patients with HNPCC,[1]; [7],all three
KCIMKEKKSLVRLSSCVPVALMSA (listed as Homo sapiens) [fsp1],Immune response of Donor 3,[5],showed an immune response
same,Immunogenicity relative to fsp3 and fsp4,[5],more immunogenic
same,"Immunogenicity (T cell proliferation, stimulation index)",[5],immunogenic
KCIMKEKKSLVRLSSCVPVALMSAMTTSSSQKN (listed as Homo sapiens) [fsp5],Solubility: effect of water on crude DMSO solution,Peptide solubility; addition of even small amounts of water to crude DMSO solution,precipitation of the peptide
same,Solubility,Peptide solubility; crude peptide ~150 mg in approximately 4 ml 50% MeCN in water under gentle heating,no clear solution could be obtained
same,Purity by UPLC after lyophilisation (stability),[6],below 50%
same,Immunogenicity relative to fsp3 and fsp4,[5],more immunogenic
same,"Immunogenicity (T cell proliferation, stimulation index)",[5],immunogenic
"AMTTSSSQKNITPAILTCC [p537, prior art peptide of mutTGFβR2]","Immunogenicity (Saeterdal, PNAS)",[1],not immunogenic
SSGVPVALMSAMTTSSSQKN (also: 2TFA salt) [fsp4],"Immunogenicity (T cell proliferation, stimulation index)",[5],immunogenic
fsp6: Peptide of SEQ ID NO: 26; same sequence as fsp2 but truncated at the C-terminus and without C-to-G substitution (KCIMKEKKSLVRLSSCV; listed as Homo sapiens),Immunogenicity relative to fsp2,[2]; FIG. 13,less immunogenic
same,Immunogenicity relative to fsp7,[2]; FIG. 13,much more immunogenic
same,"Immunogenicity (T-cell proliferation, stimulation index)",[2],immunogenic
"SLVRLSSCV [p523, prior art peptide of mutTGFβR2]",Immunogenicity (FIG. 1 of Linnebacher et al.),[3],not immunogenic
same,Immunogenicity (FIG. 14 of EP1078000),T-cells,immunogenic
KGIMKEKKSLVRLSSCVPVALMSA (not fully specified) [fsp2],Immune response of Donor 3,[5],showed an immune response
same,Immunogenicity relative to fsp3 and fsp4,[5],more immunogenic
same,"Immunogenicity (T cell proliferation, stimulation index)",[5],immunogenic
same,Immunogenicity relative to fsp7,[2]; FIG. 13,much more immunogenic
